The values below come from ChEMBL document CHEMBL3390832 (Medchemcomm, 2011).

The target of one experiment is Glutamate NMDA receptor. The experiment can be described thus: Displacement of [3H]CGP-39653 from NMDA receptor in rat brain cortical membranes. In kind it is cell membranes. In general terms: Loss of bound radioactivity is the signal in a displacement assay; it reports binding, not function.
The target of experiment [1] is T1, Metabotropic glutamate receptor 3 (Homo sapiens, UniProt Q14832). Put plainly: Agonist activity at human mGluR3 receptor expressed in HEK cells. In kind it is cell-based, HEK293.
The target in experiment [2] is T1, Metabotropic glutamate receptor 3. The experiment can be described thus: Binding affinity to human mGluR3 receptor expressed in HEK cells. In kind it is cell-based, HEK293.
The target of experiment [3] is T2, G-protein coupled receptor family C group 6 member A (Mus musculus, UniProt Q8K4Z6).
T2 sequence (Q8K4Z6 whole entry): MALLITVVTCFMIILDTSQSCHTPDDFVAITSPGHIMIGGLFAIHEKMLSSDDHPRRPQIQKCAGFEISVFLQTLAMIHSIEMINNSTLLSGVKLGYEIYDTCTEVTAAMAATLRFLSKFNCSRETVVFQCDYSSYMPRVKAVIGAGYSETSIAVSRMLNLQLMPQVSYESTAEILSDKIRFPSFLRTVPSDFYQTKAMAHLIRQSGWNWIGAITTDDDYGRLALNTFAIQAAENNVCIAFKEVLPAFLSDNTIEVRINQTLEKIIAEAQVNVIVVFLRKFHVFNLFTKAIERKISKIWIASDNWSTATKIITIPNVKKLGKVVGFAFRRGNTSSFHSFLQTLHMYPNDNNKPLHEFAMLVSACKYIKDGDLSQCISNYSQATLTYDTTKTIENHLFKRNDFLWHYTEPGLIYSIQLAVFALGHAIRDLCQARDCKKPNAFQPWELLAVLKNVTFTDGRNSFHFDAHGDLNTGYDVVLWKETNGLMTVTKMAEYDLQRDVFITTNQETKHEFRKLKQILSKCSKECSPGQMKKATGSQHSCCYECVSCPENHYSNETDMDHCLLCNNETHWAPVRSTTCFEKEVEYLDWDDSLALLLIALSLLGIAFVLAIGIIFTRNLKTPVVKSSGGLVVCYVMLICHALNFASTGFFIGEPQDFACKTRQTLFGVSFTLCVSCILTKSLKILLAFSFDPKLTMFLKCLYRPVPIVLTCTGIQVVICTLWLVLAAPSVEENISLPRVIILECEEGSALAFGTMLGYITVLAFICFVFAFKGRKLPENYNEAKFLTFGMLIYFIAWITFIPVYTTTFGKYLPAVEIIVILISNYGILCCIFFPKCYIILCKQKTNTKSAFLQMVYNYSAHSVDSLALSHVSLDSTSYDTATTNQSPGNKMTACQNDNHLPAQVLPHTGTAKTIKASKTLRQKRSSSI
Put plainly: Agonist activity at mouse GPRC6A expressed in human tsA201 cells coexpressing GalphaqG66D after 30 mins by inositol phosphate turnover assay. The class given is functional, cell-based.

Experiment [4] has as its target T3, Metabotropic glutamate receptor 7 (Homo sapiens, UniProt Q14831). The experiment can be described thus: Agonist activity at human mGluR7 receptor expressed in HEK cells. The class given is cell-based, HEK293.
Experiment [5] deals with T3, Metabotropic glutamate receptor 7. The experiment can be described thus: Binding affinity to human mGluR7 receptor expressed in HEK cells. In kind it is cell-based, HEK293.

Each structure is given as a SMILES string. Where only a bound is given, the exact number is not on record here.

T1 sequence (Q14832 whole entry): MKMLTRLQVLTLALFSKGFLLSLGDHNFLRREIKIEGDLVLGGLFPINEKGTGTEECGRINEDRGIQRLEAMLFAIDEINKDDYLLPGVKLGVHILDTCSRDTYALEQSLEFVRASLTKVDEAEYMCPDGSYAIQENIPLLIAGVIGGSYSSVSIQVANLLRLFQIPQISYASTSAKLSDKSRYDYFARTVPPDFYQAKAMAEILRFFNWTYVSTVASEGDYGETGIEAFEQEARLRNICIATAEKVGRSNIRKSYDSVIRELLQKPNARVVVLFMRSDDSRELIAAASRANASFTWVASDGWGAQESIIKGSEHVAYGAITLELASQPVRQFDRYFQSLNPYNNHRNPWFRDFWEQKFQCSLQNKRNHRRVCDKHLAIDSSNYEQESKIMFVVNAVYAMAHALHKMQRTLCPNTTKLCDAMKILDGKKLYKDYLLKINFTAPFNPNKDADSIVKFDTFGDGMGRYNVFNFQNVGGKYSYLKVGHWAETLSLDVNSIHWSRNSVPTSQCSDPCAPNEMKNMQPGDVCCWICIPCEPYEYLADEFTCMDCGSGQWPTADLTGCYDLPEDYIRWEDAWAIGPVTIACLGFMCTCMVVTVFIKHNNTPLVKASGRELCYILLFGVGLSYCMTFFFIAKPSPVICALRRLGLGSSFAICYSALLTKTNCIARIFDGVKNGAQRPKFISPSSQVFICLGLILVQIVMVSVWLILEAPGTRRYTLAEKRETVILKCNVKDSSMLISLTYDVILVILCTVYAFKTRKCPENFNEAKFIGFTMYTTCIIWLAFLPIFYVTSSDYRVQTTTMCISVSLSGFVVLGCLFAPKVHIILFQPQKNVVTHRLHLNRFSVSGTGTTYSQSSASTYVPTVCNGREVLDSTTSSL
T3 sequence (Q14831 whole entry): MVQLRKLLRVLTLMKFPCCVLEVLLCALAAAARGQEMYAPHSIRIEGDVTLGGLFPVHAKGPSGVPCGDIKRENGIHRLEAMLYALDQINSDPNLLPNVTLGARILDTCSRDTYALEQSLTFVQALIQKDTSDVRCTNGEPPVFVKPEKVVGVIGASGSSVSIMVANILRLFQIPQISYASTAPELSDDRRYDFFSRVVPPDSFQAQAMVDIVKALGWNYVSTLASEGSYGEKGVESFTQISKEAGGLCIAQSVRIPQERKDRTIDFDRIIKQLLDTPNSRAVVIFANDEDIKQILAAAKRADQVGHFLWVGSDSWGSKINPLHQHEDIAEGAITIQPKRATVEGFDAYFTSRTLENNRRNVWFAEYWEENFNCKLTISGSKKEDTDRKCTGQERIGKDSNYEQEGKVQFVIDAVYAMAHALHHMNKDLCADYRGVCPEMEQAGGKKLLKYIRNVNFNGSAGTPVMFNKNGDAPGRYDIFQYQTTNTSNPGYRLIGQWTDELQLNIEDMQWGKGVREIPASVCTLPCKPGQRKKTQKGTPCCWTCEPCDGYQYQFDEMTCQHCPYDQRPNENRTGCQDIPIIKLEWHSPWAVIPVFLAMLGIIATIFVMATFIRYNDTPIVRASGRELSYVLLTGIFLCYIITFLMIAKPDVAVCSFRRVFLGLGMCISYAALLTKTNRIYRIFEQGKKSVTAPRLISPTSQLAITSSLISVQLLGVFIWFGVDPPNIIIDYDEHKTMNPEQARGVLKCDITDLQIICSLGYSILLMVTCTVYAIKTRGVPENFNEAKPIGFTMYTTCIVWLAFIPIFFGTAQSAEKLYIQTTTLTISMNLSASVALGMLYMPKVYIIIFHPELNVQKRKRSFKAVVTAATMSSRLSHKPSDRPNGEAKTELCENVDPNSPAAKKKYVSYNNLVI

For `N[C@@H](CCc1nsnc1O)C(=O)O`, at Glutamate NMDA receptor, the Ki is over 100 µM.
The same measure, in the same setting: then `N[C@H](CCc1nsnc1O)C(=O)O`, with over 100 µM.
`N[C@@]1(C(=O)O)C[C@@H]1CC(=O)O` (relative stereo): the Ki on Glutamate NMDA receptor is 77 µM; in experiment [2], 200 µM. The molecule further came in with an EC50 in experiment [1] of 200 µM.
`N[C@@]1(C(=O)O)C[C@H]1CC(=O)O` (relative stereo) registered a Ki at Glutamate NMDA receptor of 72 µM. The EC50 in experiment [1] is over 1000 µM.
`N[C@]1(C(=O)O)C[C@H]1Cc1nsnc1O` (relative stereo): at Glutamate NMDA receptor, the Ki came out at 19 µM.
Molecule `N=C(N)NCCC[C@H](N)C(=O)O` [ARGININE] registered an EC50 in experiment [3] of 284 µM.
For the molecule `N[C@@H](CCC(=O)O)C(=O)O` [GLUTAMIC ACID], the values for the EC50 in experiment [1] and in experiment [4] were 0.06 µM and 1180 µM, respectively. Also, the Ki is 0.0575 µM in experiment [2] and 1170 µM in experiment [5].

A word on the Ki: it is a dissociation constant, usually derived from enzyme kinetics or from competition with a known ligand. Broadly, the EC50 is the midpoint of the concentration-response curve.
